This note sets out measurements from ChEMBL document CHEMBL5338823, “Discovery of Novel 5,6-Dihydro-1,2,4-triazine Derivatives as Efficacious Glucagon-Like Peptide-1 Receptor Agonists” (J Med Chem, 2023).

Broadly, the EC50 is the concentration that produces a half-maximal response. What is called inhibition is the relative decrease from the control value, in per cent. Read a high inhibition as strong suppression. One may read the IC50 as the concentration at which inhibition is half-maximal. Usually half-life stands for how long it takes for the measured level to halve. For orientation: Papp A→B means how fast a substance crosses the layer from the apical side.

Data set [1] addresses Glucagon-like peptide 1 receptor (Homo sapiens, UniProt P43220). The experiment in a line: Agonist activity at N-terminal HA-tagged human GLP-1R expressed in HEK293 cells assessed as effect on intracellular cAMP accumulation incubated for 30 mins by LANCA ultra cAMP assay. Type of data set: functional, cell-based.
In data set [2] the target is T1, hERG (KCNH2) (Homo sapiens, UniProt Q12809). The experiment in a line: Inhibition of hERG at 40 uM relative to control. A general note: hERG is a cardiac potassium channel; its block is linked to QT prolongation.
T1 sequence (Q12809 whole entry): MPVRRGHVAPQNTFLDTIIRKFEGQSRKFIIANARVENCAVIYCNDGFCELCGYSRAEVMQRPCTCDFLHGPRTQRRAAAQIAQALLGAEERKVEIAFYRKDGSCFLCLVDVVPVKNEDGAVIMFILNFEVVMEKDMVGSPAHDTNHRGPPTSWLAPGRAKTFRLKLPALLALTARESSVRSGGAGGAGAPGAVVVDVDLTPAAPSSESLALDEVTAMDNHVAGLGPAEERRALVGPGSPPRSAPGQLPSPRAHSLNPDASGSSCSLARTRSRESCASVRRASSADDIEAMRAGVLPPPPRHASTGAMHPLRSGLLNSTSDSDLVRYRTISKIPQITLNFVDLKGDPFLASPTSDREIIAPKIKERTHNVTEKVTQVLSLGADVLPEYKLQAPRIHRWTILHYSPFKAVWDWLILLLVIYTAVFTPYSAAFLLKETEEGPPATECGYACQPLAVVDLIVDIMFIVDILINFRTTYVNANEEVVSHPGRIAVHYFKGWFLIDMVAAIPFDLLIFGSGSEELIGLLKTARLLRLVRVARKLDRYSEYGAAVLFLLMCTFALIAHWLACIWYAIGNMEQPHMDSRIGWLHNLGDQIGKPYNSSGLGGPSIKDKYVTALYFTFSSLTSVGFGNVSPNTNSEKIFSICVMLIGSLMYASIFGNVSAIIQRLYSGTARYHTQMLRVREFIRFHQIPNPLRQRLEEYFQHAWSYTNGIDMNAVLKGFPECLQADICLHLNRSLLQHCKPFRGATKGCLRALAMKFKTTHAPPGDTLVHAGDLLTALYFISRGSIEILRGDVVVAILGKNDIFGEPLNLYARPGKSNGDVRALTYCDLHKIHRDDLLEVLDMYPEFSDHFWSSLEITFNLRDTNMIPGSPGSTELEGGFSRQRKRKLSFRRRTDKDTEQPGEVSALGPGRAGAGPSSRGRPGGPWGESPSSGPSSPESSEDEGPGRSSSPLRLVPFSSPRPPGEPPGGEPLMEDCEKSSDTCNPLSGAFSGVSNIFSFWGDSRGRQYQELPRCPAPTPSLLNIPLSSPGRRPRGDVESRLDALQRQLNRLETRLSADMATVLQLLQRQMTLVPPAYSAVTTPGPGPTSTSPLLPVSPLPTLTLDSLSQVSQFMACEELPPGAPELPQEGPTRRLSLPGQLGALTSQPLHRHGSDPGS
Data set [3] has as its target Voltage-gated inwardly rectifying potassium channel KCNH2 (Homo sapiens, UniProt Q12809). In words: Inhibition of hERG.
A short description of data set [4]: Stability in human liver microsomes assessed as half-life at 1 uM measured upto 60 mins in the presence of NADPH by LC-MS/MS analysis. It counts as ADME, Microsome. A general note: Liver microsomes are vesicles of endoplasmic reticulum, rich in cytochrome P450 enzymes.
Data set [5] can be described thus: Stability in rat liver microsomes assessed as half-life at 1 uM measured upto 60 mins in the presence of NADPH by LC-MS/MS analysis. Type of data set: ADME, Microsome.
A short description of data set [6]: Stability in mouse liver microsomes assessed as half-life at 1 uM measured upto 60 mins in the presence of NADPH by LC-MS/MS analysis. It counts as ADME, Microsome.
Data set [7] is described as follows: Stability in human liver microsomes assessed as intrinsic clearance at 1 uM measured upto 60 mins in the presence of NADPH by LC-MS/MS analysis. Type of data set: ADME, Microsome. To be noted: 1 h.
Data set [8] can be described thus: Stability in rat liver microsomes assessed as intrinsic clearance at 1 uM measured upto 60 mins in the presence of NADPH by LC-MS/MS analysis. To be noted: 1 h. It counts as ADME, Microsome.
The nature of data set [9]: Stability in mouse liver microsomes assessed as intrinsic clearance at 1 uM measured upto 60 mins in the presence of NADPH by LC-MS/MS analysis. Type of data set: ADME, Microsome. To be noted: 1 h.
The target of data set [10] is T2, Glucagon-like peptide 1 receptor (Mus musculus) (UniProt O35659).
T2 sequence (whole entry): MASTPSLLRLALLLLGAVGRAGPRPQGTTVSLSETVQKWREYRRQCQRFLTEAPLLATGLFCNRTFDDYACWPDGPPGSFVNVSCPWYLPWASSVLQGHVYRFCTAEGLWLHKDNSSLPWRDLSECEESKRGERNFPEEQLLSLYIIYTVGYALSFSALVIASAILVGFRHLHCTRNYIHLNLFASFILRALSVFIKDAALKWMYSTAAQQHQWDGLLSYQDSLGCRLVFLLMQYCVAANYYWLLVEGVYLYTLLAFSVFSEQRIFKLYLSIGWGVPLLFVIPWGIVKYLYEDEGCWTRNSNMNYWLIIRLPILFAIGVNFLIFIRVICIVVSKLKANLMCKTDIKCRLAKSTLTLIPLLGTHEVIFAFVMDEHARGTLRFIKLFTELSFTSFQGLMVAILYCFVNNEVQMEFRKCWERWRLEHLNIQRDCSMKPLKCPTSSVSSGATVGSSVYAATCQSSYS
In words: Activation of mouse GLP-1R.

The test system of data set [11] is Mus musculus. The experiment in a line: In vivo agonist activity at GLP-1R in C57BL/6J mouse with human GLP-1R knock-in assessed as reduction in blood glucose level at 1 mg/kg, po pre-treated with compound for 1 hrs followed by glucose administration and measured upto 90 mins by Oral Glucose Tolerance Test. It counts as functional, organism-based. To be noted: time <= 150.0 min.

Data set [12] concerns Mus musculus. The experiment in a line: In vivo agonist activity at GLP-1R in C57BL/6J mouse with human GLP-1R knock-in assessed as reduction in food intake at 30 mg/kg, sc measured after 2.5 to 12 hrs in dark cycle. Type of data set: functional, organism-based. To be noted: time 2.5-12 hrs.
A short description of data set [13]: Drug concentration in C57BL/6J mouse plasma at 5 mg/kg, po measured after 1 hrs by LC-MS/MS analysis. Type of data set: ADME, organism-based.
The nature of data set [14]: Drug concentration in C57BL/6J mouse plasma at 5 mg/kg, po measured after 4 hrs by LC-MS/MS analysis. Type of data set: ADME, organism-based.
Data set [15] is described as follows: Apparent permeability across apical to basolateral side in human Caco-2 cells at 10 uM measured after 95 mins by LC-MS/MS analysis. It counts as ADME, cell-based. (Passage across Caco-2 layers is used to estimate intestinal permeability.)
Data set [16] concerns the target T1, hERG (KCNH2). In words: Inhibition of hERG at 3 uM relative to control.

SMILES strings stand for the structures. Calls of active or inactive are those of the source. The calls are words filed in the database; no cut-off is given here.

Chain of Glucagon-like peptide 1 receptor (P43220 whole entry): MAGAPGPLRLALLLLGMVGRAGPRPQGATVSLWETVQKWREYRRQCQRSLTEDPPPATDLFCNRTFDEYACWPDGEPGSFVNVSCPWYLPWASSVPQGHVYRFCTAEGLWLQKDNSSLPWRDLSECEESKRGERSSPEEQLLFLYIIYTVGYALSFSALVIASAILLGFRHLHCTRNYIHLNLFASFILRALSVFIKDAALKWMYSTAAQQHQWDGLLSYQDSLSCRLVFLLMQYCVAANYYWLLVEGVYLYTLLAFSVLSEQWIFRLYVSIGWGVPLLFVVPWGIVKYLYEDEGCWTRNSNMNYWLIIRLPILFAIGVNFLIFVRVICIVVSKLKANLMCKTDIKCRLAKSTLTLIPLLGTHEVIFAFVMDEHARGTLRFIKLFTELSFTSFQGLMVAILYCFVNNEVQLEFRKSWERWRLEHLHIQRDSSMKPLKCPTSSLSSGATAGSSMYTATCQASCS
Chain of Voltage-gated inwardly rectifying potassium channel KCNH2 (Q12809 whole entry): as the sequence (Q12809 whole entry) above

Take `N#Cc1ccc(COc2cccc(N3CCC4(CN(Cc5nc6ccc(C(=O)O)cc6n5C[C@@H]5CCO5)C4)C3)n2)c(F)c1`: the EC50 in [1] stood at 5.01 µM.
Molecule `N#Cc1ccc(COc2cccc(N3C=NN(Cc4nc5ccc(C(=O)O)cc5n4C[C@@H]4CCO4)CC3)n2)c(F)c1` came in with an inhibition at 40 µM at hERG (KCNH2) [2] of 48%. In [3], this molecule returned an IC50 greater than 40 µM.
On to `N#Cc1ccc(COc2cccc(C3CCN(Cc4nc5ccc(C(=O)O)cc5n4C[C@@H]4CCO4)CC3)n2)c(F)c1` [DANUGLIPRON], for which the inhibition at 40 µM against hERG (KCNH2) [2] is 90%. For the same molecule, the figures for the half-life at 1 µM in data set [4], in data set [5] and in data set [6] were 6.92 h, 2.72 h and 2.8 h, respectively. The CLH in data set [7] amounted to 5 mL/min/g; in data set [8], 13 mL/min/g; in [9], 13 mL/min/g. Besides, in data set [10], the result was inactive. The outcome with Mus musculus [11] and with Mus musculus [12] was Active.
Regarding `O=C(O)c1ccc2nc(Cn3ccc(-c4cccc(OCc5ccc(Cl)cc5F)n4)nc3=O)n(C[C@@H]3CCO3)c2c1`, the EC50 in data set [1] is greater than 10 µM.
On the same count and under the same terms, for `N#Cc1ccc(COc2cccc(N3CCC(NCc4nc5ccc(C(=O)O)cc5n4C[C@@H]4CCO4)CC3)n2)c(F)c1` the value was 0.153 µM; for `CC1CN(c2cccc(OCc3ccc(C#N)cc3F)n2)C=NN1Cc1nc2ccc(C(=O)O)cc2n1C[C@@H]1CCO1` (stereo partly specified), 0.0006 µM.
`COc1cc(C#N)ccc1COc1cccc(N2C=NN(Cc3nc4c(F)cc(C(=O)O)cc4n3C[C@@H]3CCO3)CC2)n1`: the inhibition at 40 µM on hERG (KCNH2) [2] was determined as 50%. Also, the IC50 in data set [3] is greater than 40 µM. For the same molecule, the figures for the half-life at 1 µM in data set [4], in data set [5] and in [6] were 5.45 h, 2.23 h and 3.03 h, respectively. The figures for the CLH in [7], in data set [8] and in data set [9] were 6 mL/min/g, 16 mL/min/g and 12 mL/min/g, respectively. Further, in data set [13], the concentration at 1 h turned out to be 12 ng/mL. The molecule further had a concentration at 4 h in data set [14] of 3 ng/mL. Moreover, in [15], the Papp A→B at 1.583 h, 10 µM was 0.19 ×10⁻⁶ cm/s.
Regarding `COc1cc(N)c(Cl)cc1C(=O)N[C@H]1CCN(CCCOc2ccc(F)cc2)C[C@H]1OC` [REL-CISAPRIDE], 3 µM produced 92% inhibition at hERG (KCNH2) [16].
With `O=C(O)c1cc(F)c2nc(CN3CCN(c4cccc(OCc5ccc(Cl)c6cc(F)oc56)n4)C=N3)n(C[C@@H]3CCO3)c2c1`, the values for the half-life at 1 µM in data set [4], in data set [5] and in data set [6] were 2.77 h, 1.58 h and 1.72 h, respectively. Moreover, the values for the CLH in [7], in [8] and in [9] were 13 mL/min/g, 22 mL/min/g and 21 mL/min/g, respectively.
With `N#Cc1ccc(COc2cccc(N3CC4(CC3=O)CN(Cc3nc5ccc(C(=O)O)cc5n3C[C@@H]3CCO3)C4)n2)c(F)c1`, in data set [1], the EC50 was greater than 10 µM.
At hERG (KCNH2) [2], `O=C(O)c1cc(F)c2nc(CN3CCN(c4cccc(OCc5ccc(Cl)c6c5OCC6)n4)C=N3)n(C[C@@H]3CCO3)c2c1` registered an inhibition at 40 µM of 51%. In [3], this molecule returned an IC50 of 0.05 µM. For the same molecule, the half-life at 1 µM in [4] is 1.5 h; in data set [5] it was 0.6 h; in data set [6] it was 0.517 h. For the same molecule, the CLH in data set [7] came out at 23 mL/min/g; in data set [8], 59 mL/min/g; in data set [9], 67 mL/min/g.
At hERG (KCNH2) [2], `COc1cc(Cl)ccc1COc1cccc(N2C=NN(Cc3nc4c(F)cc(C(=O)O)cc4n3C[C@@H]3CCO3)CC2)n1` yielded an inhibition at 40 µM of 44%. The same molecule registered an IC50 in data set [3] greater than 40 µM. For the same molecule, the half-life at 1 µM came to 1.67 h in data set [4], 0.783 h in data set [5] and 0.717 h in [6]. Moreover, the CLH in data set [7] was 21 mL/min/g; in data set [8], 45 mL/min/g; in [9], 49 mL/min/g.
`N#Cc1ccc(COc2cccc(OC3CCN(Cc4nc5ccc(C(=O)O)cc5n4C[C@@H]4CCO4)CC3)n2)c(F)c1`: the EC50 in data set [1] is 0.0007 µM.
For the molecule `N#Cc1ccc(COc2cccc(N3C=NN(Cc4nc5c(F)cc(C(=O)O)cc5n4C[C@@H]4CCO4)CC3)n2)c2occc12`, the inhibition at 40 µM against hERG (KCNH2) [2] was determined as 30%. The molecule also gave an IC50 in data set [3] greater than 40 µM. The half-life at 1 µM in [4] is 2.48 h; in data set [5], 1.05 h; in data set [6], 2.07 h. Further, the CLH in data set [7] was determined as 14 mL/min/g; in data set [8], 33 mL/min/g; in data set [9], 17 mL/min/g.
As for `N#Cc1ccc(COc2cccc(N3C[C@H]4CN(Cc5nc6ccc(C(=O)O)cc6n5C[C@@H]5CCO5)C[C@H]4C3)n2)c(F)c1`, the EC50 in data set [1] is greater than 10 µM.
